According to ChEMBL document CHEMBL3885861, “Open TG-GATES”:

Organism: Rattus norvegicus
Test: Open TG-GATES - Regimen: Single
Assay type: toxicity, organism-based, Sprague-Dawley
Set-up: regimen Single, gender Male, age 6 weeks
Details: in vivo, po, route gavage; for gamma-GTP / ALP / ALT / AST / BUN / CRE / Ca / Cl / DBIL / GLC / IP / K / LDH / Na / PL / RALB / TBIL / TC / TG / TP: tissue Plasma; for APTT / Bas / Eos / Fbg / Hb / Ht / Lym / MCH / MCHC / MCV / Mono / Neu / PT / Plat / RBC / Ret: tissue Blood; for KIDNEY_L / KIDNEY_R / KIDNEY_TOTAL: tissue Kidney; for LIVER: tissue Liver

COc1ccc2[nH]c([S+]([O-])Cc3ncc(C)c(OC)c3C)nc2c1 (configuration not stated) [OMEPRAZOLE] was tested, and the gamma-GTP (0 mg/kg, 24 h, dose level Control) was 1.4 IU/L, the TERMINAL_BW (100 mg/kg, 3 h, dose level Low) was 221.4 g and the APTT (100 mg/kg, 3 h, dose level Low) was 18.4 s. For the same compound, the Bas (100 mg/kg, 3 h, dose level Low) was 0%, the Eos (100 mg/kg, 3 h, dose level Low) was 1.2% and the Fbg (100 mg/kg, 3 h, dose level Low) was 209.8 mg/dL. The Hb (100 mg/kg, 3 h, dose level Low) was 12.8 g/dL, the Ht (100 mg/kg, 3 h, dose level Low) was 37.6% and the Lym (100 mg/kg, 3 h, dose level Low) was 77.2%. It also gave an MCH (100 mg/kg, 3 h, dose level Low) of 21.2 pg, an MCHC (100 mg/kg, 3 h, dose level Low) of 34.1% and an MCV (100 mg/kg, 3 h, dose level Low) of 62.2 fL. The Mono (100 mg/kg, 3 h, dose level Low) was 3.4%, the Neu (100 mg/kg, 3 h, dose level Low) was 18% and the PT (100 mg/kg, 3 h, dose level Low) was 12.6 s. For the same compound, the Plat (100 mg/kg, 3 h, dose level Low) was 122.2 x10_4/uL, the RBC (100 mg/kg, 3 h, dose level Low) was 603.6 x10_4/ul and the Ret (100 mg/kg, 3 h, dose level Low) was 6.9%. It also gave a KIDNEY_L (100 mg/kg, 3 h, dose level Low) of 1 g, a KIDNEY_R (100 mg/kg, 3 h, dose level Low) of 1 g and a KIDNEY_TOTAL (100 mg/kg, 3 h, dose level Low) of 2 g. It also gave an LIVER (100 mg/kg, 3 h, dose level Low) of 10.2 g, an ALP (100 mg/kg, 3 h, dose level Low) of 983 IU/L and an ALT (100 mg/kg, 3 h, dose level Low) of 33.8 IU/L. The AST (100 mg/kg, 3 h, dose level Low) was 73.6 IU/L, the BUN (100 mg/kg, 3 h, dose level Low) was 11.6 mg/dL and the CRE (100 mg/kg, 3 h, dose level Low) was 0.4 mg/dL. It also gave a Ca (100 mg/kg, 3 h, dose level Low) of 10.6 mg/dL, a Cl (100 mg/kg, 3 h, dose level Low) of 100.6 meq/L and a DBIL (100 mg/kg, 3 h, dose level Low) of 0.078 mg/dL. For the same compound, the GLC (100 mg/kg, 3 h, dose level Low) was 201.4 mg/dL, the IP (100 mg/kg, 3 h, dose level Low) was 9.1 mg/dL and the K (100 mg/kg, 3 h, dose level Low) was 4 meq/L. It also gave an LDH (100 mg/kg, 3 h, dose level Low) of 180.6 IU/L, a Na (100 mg/kg, 3 h, dose level Low) of 140.2 meq/L and a PL (100 mg/kg, 3 h, dose level Low) of 144.8 mg/dL. It also gave an RALB (100 mg/kg, 3 h, dose level Low) of 3.3 g/dL, a TBIL (100 mg/kg, 3 h, dose level Low) of 0.1 mg/dL and a TC (100 mg/kg, 3 h, dose level Low) of 74.2 mg/dL. The TG (100 mg/kg, 3 h, dose level Low) was 86.6 mg/dL, the TP (100 mg/kg, 3 h, dose level Low) was 5.4 g/dL and the gamma-GTP (100 mg/kg, 3 h, dose level Low) was 0.8 IU/L. The TERMINAL_BW (100 mg/kg, 6 h, dose level Low) was 217.8 g, the APTT (100 mg/kg, 6 h, dose level Low) was 19.2 s and the Bas (100 mg/kg, 6 h, dose level Low) was 0%. For the same compound, the Eos (100 mg/kg, 6 h, dose level Low) was 1%, the Fbg (100 mg/kg, 6 h, dose level Low) was 217 mg/dL and the Hb (100 mg/kg, 6 h, dose level Low) was 13.2 g/dL. The Ht (100 mg/kg, 6 h, dose level Low) was 38.6%, the Lym (100 mg/kg, 6 h, dose level Low) was 76% and the MCH (100 mg/kg, 6 h, dose level Low) was 21.1 pg. For the same compound, the MCHC (100 mg/kg, 6 h, dose level Low) was 34.2%, the MCV (100 mg/kg, 6 h, dose level Low) was 61.7 fL and the Mono (100 mg/kg, 6 h, dose level Low) was 4%. The Neu (100 mg/kg, 6 h, dose level Low) was 18.8%, the PT (100 mg/kg, 6 h, dose level Low) was 12.9 s and the Plat (100 mg/kg, 6 h, dose level Low) was 114.2 x10_4/uL. For the same compound, the RBC (100 mg/kg, 6 h, dose level Low) was 626.4 x10_4/ul, the Ret (100 mg/kg, 6 h, dose level Low) was 6.5% and the KIDNEY_L (100 mg/kg, 6 h, dose level Low) was 1 g. For the same compound, the KIDNEY_R (100 mg/kg, 6 h, dose level Low) was 1 g, the KIDNEY_TOTAL (100 mg/kg, 6 h, dose level Low) was 2 g and the LIVER (100 mg/kg, 6 h, dose level Low) was 10.1 g. It also gave an ALP (100 mg/kg, 6 h, dose level Low) of 849 IU/L, an ALT (100 mg/kg, 6 h, dose level Low) of 32 IU/L and an AST (100 mg/kg, 6 h, dose level Low) of 65 IU/L. It also gave a BUN (100 mg/kg, 6 h, dose level Low) of 9.4 mg/dL, a CRE (100 mg/kg, 6 h, dose level Low) of 0.4 mg/dL and a Ca (100 mg/kg, 6 h, dose level Low) of 10.6 mg/dL. It also gave a Cl (100 mg/kg, 6 h, dose level Low) of 102.4 meq/L, a DBIL (100 mg/kg, 6 h, dose level Low) of 0.074 mg/dL and a GLC (100 mg/kg, 6 h, dose level Low) of 197.8 mg/dL. For the same compound, the IP (100 mg/kg, 6 h, dose level Low) was 9.4 mg/dL, the K (100 mg/kg, 6 h, dose level Low) was 4 meq/L and the LDH (100 mg/kg, 6 h, dose level Low) was 219.6 IU/L. For the same compound, the Na (100 mg/kg, 6 h, dose level Low) was 141 meq/L, the PL (100 mg/kg, 6 h, dose level Low) was 159.6 mg/dL and the RALB (100 mg/kg, 6 h, dose level Low) was 3.3 g/dL. The TBIL (100 mg/kg, 6 h, dose level Low) was 0.1 mg/dL, the TC (100 mg/kg, 6 h, dose level Low) was 86.2 mg/dL and the TG (100 mg/kg, 6 h, dose level Low) was 83.4 mg/dL. The TP (100 mg/kg, 6 h, dose level Low) was 5.4 g/dL.
